Assay results published in patent publication US7355074B2, “Compounds having aromatic rings and side-chain amide-functionality and a method for transporting monovalent anions across biological membranes using the same” (The University of Maryland, priority 2003, dated 2008).
Marks after values point to notes of the source that are not given here.

Key:
[1] = pH-assisted fluorimetric transport assay with calixarene amides (HPTS-loaded liposomes); assay type: biochemical; settings: for ion transport in sulfate buffers: sodium sulfate-filled LUVs in isotonic solution, up to 50 μM
Protocol: The ability of 1 and 2 to mediate ion flux across a lipid bilayer was studied fluorimetrically. A solution of 1 or 2 was added to a suspension of EYPC large unilamellar vesicles (LUVs) containing the pH-sensitive dye pyranine. An NaOH solution was added to the extravesicular buffer to create a gradient of approximately one pH unit. The resulting electrostatic potential, caused by proton efflux from the liposomes, can be compensated by cation influx or anion efflux, as mediated by the exogenous ligand. Ion transport across the membrane was signaled by the increase in relative fluorescence that accompanied the rise in intravesicular pH.
Liposome Preparation. EYPC HPTS-Containing LUVs, egg yolk 1-α-phosphatidylcholine (EYPC, 60 mg, […]) was dissolved in a CHCl3MeOH mixture, the solution was evaporated under reduced pressure, and the resulting thin film was dried under high vacuum for 2 h. The lipid film was hydrated in 1.2 mL of phosphate buffer (10 mM sodium phosphage, pH=6.4, 75-100 mM MX, M=Na^+, K^+, Cs^+, X=[…], SO4^2−) containing 10 μM HPTS (pyranine 8-hydroxypyrene-1,3,6-trisulfonic acid trisodium salt) for 2 h. The LUV suspension (1 mL) was submitted to high-pressure extrusion at room temperature (2) extrusions through a 0.1 μM polycarbonate membrane afforded LUVs with a diameter of 100 nm). The LUV suspension was separated from extravesicular dye by size exclusion chromatography (SEC) stationary phase: Sephadex G-10, mobile phase:phosphate buffer) and diluted with the same phosphate buffer to give a stock solution with a lipid concentration of 11 mM (assuming 100% of lipid was incorporated into liposomes).
Fluorimetric Transport Assays. pH-Assisted Transport Assays. Typically, 100 μL of HPTS-loaded vesicles (stock solution) was suspended in 1.85 mL of the corresponding buffer and placed into a fluorimetric cell. HPTS emission at 510 nm was monitored with excitation wavelengths at 403 and 460 nm simultaneously. During the experiment, 20 μL of a 0-10 mM THF solution of the compound of interest was added through an injection port, followed by injection of 21 μL of 0.5 M aqueous NaOH. Addition of the NaOH caused a pH increase of approximately 1 pH unit in the extravesicular buffer. Maximal changes in dye emission were obtained at the end of each experiment by lysis of the liposomes with detergent (40 μL of 5% aqueous Triton x100). The final transport trace was obtained as a ratio of the emission intensities monitored at 460 and 403 nm and normalized to 100% of transport.

[2] = 1H NMR binding experiment in CDCl3, HCl extraction
Protocol: FIG. 7 illustrates a series of […] spectra (400 mHz, CDCl3, 22° C.) of calixarene tetrabutylamide in the presence of different species: (A) the compound alone (5 mm); (B) the compound with 1 equiv. of Bu4 NCl; (C) the compound after washing CDCl3 solution of the compound with an aqueous solution of 0.5 m HCl; (D) after washing CDCl3 solution of the compound with an aqueous solution of 0.5 M H2SO4.
To obtain evidence for Cl^− binding by 2, ^1H NMR experiments were run in CDCl3 using n-Bu4-NCl and HCl as Cl^− sources. Anion receptors usually show chemical shift perturbation upon anion complexation, particularly for amide NH protons that hydrogen bond to the anion. […] Calix[4]arene tetrabutylamide 2 does, however, bind HCl. Thus, shaking a CDCl3 solution of 2 with aqueous HCl led to disappearance of the amide NH proton and a significant upfield shift of the […] protons (FIG. 4c).

[3] = liposome potential assay with safranin O; assay type: biochemical
Protocol: FIG. 3 illustrates liposome potential assays. Suspension of EYPC LUVs in phosphate buffer was used (10 m M Nan H3-n PO4, n=1, 2, pH 6.4, 100 m M KCl or 75 m M Na2 H3-n PO4, n=1, 2, pH 6.4, 100 m M KCl or 75 m M NA2 SO4 inside and 100 m M NaCl, 60 nM safranin O, ex 480 nm, em 520 nm, outside). Legend for trace denotes the formation of potential in: —KCl vesicles upon application of valinmycin·Na2SO4 vesicles upon application of 3, —KCl vesicles upon application of 3, —Na2SO4 vesicles upon application of valinomycin.
Analysis of pH changes in the liposomes experiencing a CT gradient. a) Outwardly directed gradient of Cl:HPTS-loaded vesicles (100 μL of the stock solution), filled with a saline phosphate buffer (10 mM sodium phosphate, pH 6.4, 100 mM NaCl) were suspended in 1.9 mL of an isosmotic phosphate sulfate buffer (10 mM sodium phosphate, pH 6.0, 75 mM Na2SO4) and placed into a fluorimetric cell. The emission of HPTS at 510 nm was monitored with excitation wavelengths at 403 and 460 nm simultaneously. During the experiment, 20 μL of a 0-2 mM DMSO solution of the compound of interest was added through an injection port. Intravesicular pH values were obtained as described for pH-stat transport assays. At the end of experiment, the aqueous compartment of liposomes was equilibrated with extravesicular solution by lysis of liposomes with detergent (40 μL of 5% aqueous Triton X100). b) Inwardly directed gradient of Cl:HPTS-loaded vesicles (100 μL of the stock solution), filled with a isoosimomolar sulfate phosphate buffer (10 mM sodium phosphate, pH 6.0, 75 mM Na2SO4) were suspended in 1.9 mL of an isosmotic phosphate saline buffer (10 mM sodium phosphate, pH 6.4, 100 mM NaCl) and placed into a fluorimetric cell. Further analysis was conducted as described for the case of an outwardly directed gradient of […]. Analysis of the electrostatic potential on the surface of liposomes. LUVs (100 μL of stock solution, 100 mM KCl inside and outside or 75 mM Na2SO4 inside and outside) were suspended in 1.9 mL of 100 mM NaCl buffer containing 60 nM safranin O (a potential-sensitive dye). Safranin O emission was monitored at 580 nm with excitation at 520 nm. During the course of the experiment, 20 μL of a 0-0.12 mM DMSO solution of valinomycin or 0-2 mM of 3-8 DMSO solution was added. Experiments were completed by injection of 20 μL of 1 mM aqueous solution of the defect-inductive peptide melittin.

HCl binding [2]	Compound	transport activity when buffer changed from NaCl to Na2SO4 [1]	Initial Pseudo-first Order Transport Rate Constants, Na2SO4 ([1]; 5 μM, 100 mM Na2SO4 inside pH 6.4 and outside pH 7.4, not corrected for unmediated exchange)	Initial Pseudo-first Order Transport Rate Constants, CsCl ([1]; 5 μM, 100 mM NaCl inside pH 6.4, 100 mM CsCl outside pH 7.4, not corrected for unmediated exchange)	Initial Pseudo-first Order Transport Rate Constants, KCl ([1]; 5 μM, 100 mM NaCl inside pH 6.4, 100 mM KCl outside pH 7.4, not corrected for unmediated exchange)	Initial Pseudo-first Order Transport Rate Constants, NaCl ([1]; 5 μM, 100 mM NaCl inside pH 6.4, 100 mM NaCl outside pH 7.4, not corrected for unmediated exchange)	cation selectivity of ion transport ([1]; buffers containing Na, K or Cs)	anion transport selectivity ([1]; chloride versus sulfate buffers)	transport activity ([1]; extravesicular Na, K or Cs chloride, ligand:lipid ratio of 1:100)	ion transport in sulfate buffers [1]	ion transport in sulfate buffers ([1]; listed as calix[4]arene tetrabutylamide)	transmembrane potential formed ([3]; Na2SO4 inside, NaCl outside, safranin O outside, 1 mol %)	time to formation of the transmembrane potential ([3]; Na2SO4 inside, NaCl outside, 1 mol %) [min]	ability to create a transmembrane potential ([3]; Na2SO4 vesicles in NaCl buffer (conditions of the trimer))	magnitude of the transmembrane potential ([3]; inwardly directed Cl− gradient, compared with valinomycin in liposomes with 100 mM KCl inside, 100 mM NaCl outside)
binds HCl	CCCCNC(=O)COc1c2cccc1Cc1cccc(c1OCC(=O)NCCCC)Cc1cccc(c1OCC(=O)NCCCC)Cc1cccc(c1OCC(=O)NCCCC)C2 [calix[4]arene tetrabutylamide 2, Calix[4]arene tetrabutylamide]	essentially complete loss of transport activity	1.1^b,d ×10^−3 s^−1	7.7^b,c ×10^−3 s^−1	6.4^b,c ×10^−3 s^−1	6.8^b,c ×10^−3 s^−1	nonselective toward the cation	pronounced Cl^− over HSO4^− transport selectivity	rapid exchange of intra-and extravesicular electrolytes	not mediated	No significant transport				
	CCCCNC(=O)COc1ccccc1Cc1cccc(Cc2ccccc2OCC(=O)NCCCC)c1OCC(=O)NCCCC [trimer 3, Tris-(N-butyl-2-phenoxyacetamide)]											stable negative charge inside liposomes	≤ 2	created transmembrane potential	comparable to that generated by 0.12 mol % valinomycin
